Results on eight compounds are retold here after patent EP2671872A1, “Fluorinated pyridylacetylene derivatives as tracers” (Eidgenössische Technische Hochschule Zürich (ETH), priority 2012, dated 2013).

Like-named read-outs stand apart in the source and are kept apart here.

Data set [1] concerns the target T1, mGluR5 (Rattus norvegicus, UniProt P31424). Description: PET scan of rat brain, kinetic behavior (ratio of specifically bound to free ligand). Format: in vivo, Wistar rat. The arrangement: from tissue; host or cells: brain of living male Wistar rat (in vivo PET). The note with it: tail vein injection. The procedure: A male Wistar rat (423 g) was injected 23.1 MBq [^18F]PSS232 into a tail vein and PET was acquired from 0 to 90 min post injection. […] Only brain is shown. SUV denotes standardized uptake value.
PET scans analogous to those of Example 3 were recorded after administration of [^18F]PSS232 (Fig. 7, red curves, circles and diamonds), [^11C]ABP688 (Fig. 7, black curves, squares and triangles) and [^18F]FDEGPECO (Fig. 7, blue curves, crosses and crossed bars).
Fig. 9 illustrates the favorable kinetic behavior of PSS232. The ratio of specifically bound PSS232 in caudate putamen (striatum) to free ligand PSS232 (radioactivity in cerebellum is considered to originate from free ligand) becomes constant at about 40 min after injection, thus allowing the estimation of the binding potential (BP). This is an advantage over [^11C]ABP688 where the equilibrium is not reached within 60 min and the short physical half-life of ^11C (20 min) limits the scan duration.

A short description of data set [2]: defluorination by human S9 fraction of liver homogenate. The class given is in vitro ADME.
The nature of data set [3]: defluorination by rat liver microsomes. Format: in vitro ADME.
Data set [4] can be described thus: defluorination in vivo in rats.
A short description of data set [5]: defluorination by human liver microsomes. The class given is in vitro ADME.
The target in another data set is T2, rat mGluR5 (Rattus norvegicus, UniProt P31424).
T2 construct: displacement assay with rat brain membranes and 1.6 nM [^3H]ABP688; from tissue; host or cells: rat brain membranes
Description: displacement assay with rat brain membranes and [^3H]ABP688. To be noted: radioligand of the displacement assay, used at 1.6 nM, rat brain membranes. Format: binding.

For data set [6] the following is noted: humans; background, relative to rodents and monkeys; cited from earlier work.
The conditions of data set [7]: monkeys; background; cited from earlier work.
For data set [8] the following is noted: rodents; background; cited from earlier work.
Data set [9] deals with T1, mGluR5. The note with it: background, literature; cited from earlier work.
For data set [10] the following is noted: rats; background, literature; cited from earlier work.
In data set [11] the target is T1, mGluR5. Description: ex vivo brain distribution with MTEP blockade (gamma counter). The class given is in vivo, Rats. Also on record: from tissue; host or cells: rat brain regions after in vivo injection. The note with it: 45 min after injection. The procedure: Rats were pre-injected (tail vein) with 10 mg/kg MTEP (a specific mGluR5 antagonist) before [^18F]PSS232 injection (= blockade, see green, right bars in Fig. 10) or they were pre-injected with vehicle (= baseline, see blue, left, bars in Fig. 10).

In data set [12] the target is T1, mGluR5. Description: in vitro autoradiography of rat brain slices. Format: binding. Also on record: from tissue; host or cells: brain of living animal (in vivo PET, tail vein injection). To be noted: about 1 nM tracer, 20 µm slices; compared with 100 nM ABP688 (mGluR5 ligand) or JNJ16259685 (mGluR1 ligand). The procedure:
In Fig. 4 two rat brain slices (20 µm) each were incubated with about 1 nM [^18F]PSS232 in the absence of any unlabeled compound (top) or with 100 nM of the specific mGluR5 ligand ABP688 (middle) or of mGluR1 ligand JNJ16259685 (bottom). […] It should be noted that mGluR1 is the receptor with most similar amino acid sequence to mGluR5.

The target of data set [13] is T1, mGluR5. The experiment in a line: ex vivo brain distribution after MMPEP pre-injection at various doses (receptor occupancy). To be noted: estimated from fit of MMPEP dose curve; 45 min after injection.

T1 sequence (P31424 21-1203): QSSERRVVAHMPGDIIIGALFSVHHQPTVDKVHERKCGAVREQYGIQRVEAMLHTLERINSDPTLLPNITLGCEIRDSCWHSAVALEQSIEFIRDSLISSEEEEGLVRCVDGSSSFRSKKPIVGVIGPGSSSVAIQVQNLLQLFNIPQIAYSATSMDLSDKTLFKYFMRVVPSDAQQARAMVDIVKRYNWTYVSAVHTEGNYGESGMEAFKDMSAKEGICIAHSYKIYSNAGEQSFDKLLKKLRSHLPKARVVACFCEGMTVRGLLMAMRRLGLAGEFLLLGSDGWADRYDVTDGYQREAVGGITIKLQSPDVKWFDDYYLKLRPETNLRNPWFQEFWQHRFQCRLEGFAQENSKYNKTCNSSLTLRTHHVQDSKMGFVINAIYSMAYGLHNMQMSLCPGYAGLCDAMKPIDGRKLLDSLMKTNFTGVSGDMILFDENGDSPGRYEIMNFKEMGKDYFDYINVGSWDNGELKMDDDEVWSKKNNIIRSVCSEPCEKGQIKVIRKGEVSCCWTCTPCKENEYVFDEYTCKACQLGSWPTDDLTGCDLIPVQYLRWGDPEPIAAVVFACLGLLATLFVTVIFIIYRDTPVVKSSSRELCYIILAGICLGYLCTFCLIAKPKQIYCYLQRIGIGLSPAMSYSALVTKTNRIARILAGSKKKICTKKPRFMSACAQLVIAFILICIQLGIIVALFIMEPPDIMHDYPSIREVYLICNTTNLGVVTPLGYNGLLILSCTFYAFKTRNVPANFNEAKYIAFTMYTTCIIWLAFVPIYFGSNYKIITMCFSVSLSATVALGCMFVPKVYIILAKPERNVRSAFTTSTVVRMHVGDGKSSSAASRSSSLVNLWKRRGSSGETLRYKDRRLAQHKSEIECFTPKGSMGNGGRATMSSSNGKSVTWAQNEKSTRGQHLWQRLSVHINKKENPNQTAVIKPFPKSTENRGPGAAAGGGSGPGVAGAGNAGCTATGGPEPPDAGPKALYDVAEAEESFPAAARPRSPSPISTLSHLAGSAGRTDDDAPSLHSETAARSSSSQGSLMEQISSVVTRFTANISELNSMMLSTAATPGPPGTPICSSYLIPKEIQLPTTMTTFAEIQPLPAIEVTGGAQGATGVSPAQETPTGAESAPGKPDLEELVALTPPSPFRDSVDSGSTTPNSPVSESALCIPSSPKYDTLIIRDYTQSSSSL
T2 sequence (P31424 21-1203): as above

As for `FCCOCCCO/N=C1/C=C(C#Cc2ccccn2)CCC1` [PSS232, (E)-3-(pyridin-2-ylethynyl)-cyclohex-2-enone O-(3-(2-fluoroethoxy)propyl) oxime], on mGluR5 [1], the “time after injection at which ratio of specifically bound (caudate putamen/striatum) to free ligand (cerebellum) becomes constant (equilibrium)” value is on record as “about 40 min”. The defluorination result in data set [2], in data set [3] and in data set [5] was “not significantly defluorinated” in each case. In data set [4], the defluorination in vivo result is given as “does not show significant defluorination”.

`CON=C1C=C(C#Cc2cccc(C)n2)CCC1` [[^3H]ABP688] gave a Kd at rat mGluR5 of 1.7 nM.

On to `Cc1cccc(C#CC2=C/C(=N/O[11CH3])CCC2)n1` [[^11C]ABP688, (E)-3-((6-methylpyridin-2-yl)ethynyl)cyclohex-e-enone-O-^11C-methyl oxime], for which the “time after injection at which ratio of specifically bound (caudate putamen/striatum) to free ligand (cerebellum) becomes constant (equilibrium)” value on mGluR5 [1] was above 60 min.

Turning to `N#Cc1cc(F)cc(C#Cc2csc(C[18F])n2)c1` [[^18F]-SP203], the defluorination result in data set [6] is recorded as “to a lesser extent”; in data set [7] it was “significant defluorination”; in data set [8], “significant defluorination”.

As to `[18F]CCOCCO/N=C1/C=C(C#Cc2ccccn2)CCC1` [[^18F]FDEGPECO, (E)-3-(Pyridin-2-ylethynyl)-cyclohex-2-enone-O-2-(2-^18F-fluoroethoxy)ethyl oxime], on mGluR5 [9], the “mean residence time at the target site” value is reported as “relatively short”.

For the compound `[18F]CCCOCCO/N=C1/C=C(C#Cc2ccccn2)CCC1` [[^18F]PSS223, (E)-3-(pyridin-2-ylethynyl)cyclohex-2-enone O-(2-(3-^18F-fluoropropoxy)ethyl) oxime], the defluorination in vivo entry in data set [10] is “rapid defluorination”.

`FCCOCCCO/N=C1/C=C(C#Cc2ccccn2)CCC1` [[^18F]PSS232, (E)-3-(pyridin-2-ylethynyl)-cyclohex-2-enone O-(3-(2-fluoroethoxy)propyl) oxime]: on mGluR5 [11] (baseline (vehicle) vs blockade with 10 mg/kg MTEP), the “average specific binding in striatum” value was 86.6%. Also, the “accumulation in mGluR5-rich domains of rat brain slices” value at mGluR5 [12] is “high, mGluR5-selective accumulation”. Further, the “maximal specific binding in striatum” value at mGluR5 [13] is 78.5%.

Regarding MTEP, the “radioactivity of brain regions after MTEP pre-injection” value on mGluR5 [11] (10 mg/kg MTEP tail vein before [^18F]PSS232) was “all brain regions have similar radioactivity as in cerebellum”.

A word on the Kd: it is the equilibrium constant for the complex coming apart. A high value points to a looser complex.
